# Measured values reported in patent US6730691B1, “Uses of alpha adrenergic blocking agents” (priority 2000, dated 2004).
# Structures can show the parent of a compound that is named as a salt.
# Assays:
# [1] = tested on: subjects who had undergone surgical implantation of a refractive intraocular lens, experiencing photophobia, glare, secondary images and haloing; experiment: Topical thymoxamine ophthalmic solution in subjects after implantation of a refractive intraocular lens; type: in vivo, human; details: three subjects
# Protocol: A suitable ophthalmic solution was prepared containing about 0.5% by weight thymoxamine by the Moorfields Eye Hospital, London, England having the following composition: Applicant believes that the aqueous ophthalmic solution was prepared by dissolving the sodium acetate, boric acid and phenylmercuric nitrate in most of the purified water. Dissolution was promoted by heating the solution. Upon cooling the solution to room temperature, the thymoxamine hydrochloride was added and was dissolved without further heating. The remainder of the purified water was then added to reach a final volume of 100 ml. Sterilization of the solution was achieved by filtering it through a sterilizing filter. Three subjects, each of whom had undergone surgical implantation of a refractive intraocular lens, were selected for study. Each of the three subjects complained of experiencing photophobia, glare, secondary images and haloing, especially at night. Each of the three subjects received an approximately one drop dose twice daily of an ophthalmic solution containing 0.5% by weight of thymoxamine. […] Each of the subjects continued application of approximately a one drop dose on an as needed basis for a period of one month.
# [2] = tested on: patients who had undergone radial keratotomy and who each experienced glare and halos; experiment: Topical thymoxamine ophthalmic solution in patients after radial keratotomy; type: in vivo, human; details: two radial keratotomy patients; similarly treated with 0.5% by weight solution
compound,measurement,setting,value
"CC(=O)Oc1cc(C(C)C)c(OCCN(C)C)cc1C [thymoxamine, thymoxamine hydrochloride]",induced myopia or headaches,"[1]; 0.5% by weight solution, one day period",without experiencing induced myopia or headaches
same,irritation from the topical application to the eye,[1]; after administration of a dosage of 0.5% by weight solution,mild irritation
same,undesirable visual anomalies once treatment was terminated,[1]; after termination of treatment,returned to each of the three subjects
same,undesirable visual anomaly during the usage period,[1]; approximately one drop as needed for one month,None of the subjects have experienced the previously complained of undesirable visual anomaly
same,"previously complained of undesirable visual anomaly (photophobia, glare, secondary images, haloing)","[1]; approximately one drop twice daily of 0.5% by weight solution, one day period",elimination of the previously complained of undesirable visual anomaly
same,glare and halos after treatment,[2],comparable results
